Source: paper PMC6272674, “Selected Compounds Structurally Related to Acyclic Sesquiterpenoids and Their Antibacterial and Cytotoxic Activity” (Molecules, 2015)
Values after ≈ are worked out from the molar mass of the structure shown.

Experiments:
[1] = system: Staphylococcus aureus ATCC 43300; assay: Micro-dilution broth MIC, Staphylococcus aureus; format: cell-based; conditions: ATCC43300, 24 h, 37 °C, read-out: Minimum Inhibitory Concentrations MIC
Description: (§1) The standard strains, Gram-positive: Staphylococcus aureus ATCC […], Enterococcus faecalis Van B ATCC 51299 and Enterococcus faecium VA sensitive ATCC 35667, and Gram-negative: Escherichia coli ATCC 25922, Klebsiella pneumoniae ATCC 700603 and Acinetobacter baumannii ATCC 19606, came from a collection of the Environmental Biology Department, Medical University of Łódź. The standard strains were cultivated in Columbia Agar Medium and incubated at 37 °C for 24 h in aerobic conditions.
(§2) The antibacterial activity of the racemates and E/Z-mixtures was investigated using the micro‑dilution broth method. The compounds were diluted in ethanol. This stock solution was mixed with 100 µL of Mueller-Hinton broth to obtain concentrations from 10 µg/mL to 80 µg/mL. The mixtures were then transferred to 96-well microtiter plates. The microbial suspension was standardised to a cell density of 1.5 × 10^8 CFU, which was equal to an optical density of 0.5 on the Mc Farland scale by a bio-Merieux densitometer; one well was filled with broth only to act as a control for strain growth.

[2] = system: Enterococcus faecalis ATCC 51299; assay: Micro-dilution broth MIC, Enterococcus faecalis; format: cell-based; conditions: ATCC51299, 24 h, 37 °C, read-out: Minimum Inhibitory Concentrations MIC
Description: as §1, §2

[3] = system: Enterococcus faecium ATCC 35667; assay: Micro-dilution broth MIC, Enterococcus faecium; format: cell-based; conditions: ATCC35667, 24 h, 37 °C, read-out: Minimum Inhibitory Concentrations MIC
Description: as §1, §2

[4] = system: Escherichia coli ATCC 25922; assay: Micro-dilution broth MIC, Escherichia coli; format: cell-based; conditions: ATCC25922, 24 h, 37 °C, read-out: Minimum Inhibitory Concentrations MIC
Description: as §1, §2

[5] = system: Klebsiella pneumoniae ATCC 700603; assay: Micro-dilution broth MIC, Klebsiella pneumoniae; format: cell-based; conditions: ATCC700603, 24 h, 37 °C, read-out: Minimum Inhibitory Concentrations MIC
Description: as §1, §2

[6] = system: Acinetobacter baumannii ATCC 19606; assay: Micro-dilution broth MIC, Acinetobacter baumannii; format: cell-based; conditions: ATCC19606, 24 h, 37 °C, read-out: Minimum Inhibitory Concentrations MIC
Description: as §1, §2

Malignant Melanoma MEWO = assay: MTT viability, MEWO; format: cell-based, human; conditions: Homo sapiens, 24 h, range 10–1000 µM, read-out: half maximal inhibitory concentration (IC50), interpolated
Description: (§3) Cell lines and in vitro culture conditions: The human promyelocytic leukaemia cell line HL-60 was obtained from the Centre of Molecular and Macromolecular Biology in Łódź, Poland and was cultured in RPMI 1640 medium with 20% heat-inactivated fetal bovine serum (FBS). To reduce spontaneous differentiation, the cells were never allowed to exceed a concentration of 1.0 × 10^6 cells/mL. The human keratinocyte cell line HaCaT was obtained from Cell Lines Service, Germany (CLS) and cultured in DMEM medium with 10% FBS. Human colorectal adenocarcinoma HT29 and normal epithelial IEC-6 cell lines (from ATCC) were cultured in DMEM medium with 10% FBS. The human skin melanoma cell line MEWO (from CLS) was cultured in DMEM:F12 supplemented with 2 mM L-glutamine and 10% FBS. Human fibroblasts from gingiva isolated from original tissue, HFIB-G, (from Provitro) were cultured in Quantum 333 (from Immunique). The media were supplemented with 100 U/mL penicillin and 100 µg/mL streptomycin; all media components were obtained from Life Technologies. The adherent cell lines used in the studies were seeded on microplates before they exceeded 80% of confluence. Cells were cultured at 37 °C in 5% CO2 air atmosphere/95% air atmosphere.
(§4) Cytotoxic activity: The cells (the density for HL-60 was 0.5 × 10^4 cells/100 µL, otherwise it was 1 × 10^4 cells/100 µL) were plated into each well of 96-well microtiter plates and, after their attachment to the plate surface, treated with 10 µL of the indicated concentrations of compounds for 24 h. Viability was determined by MTT assay following the treatment. MTT (3-[4.5-dimethylthiazol-2-yl]-2.5-diphenyltetrazolium bromide; Sigma, St. Louis, MO, USA) solution was added to each well and incubated for another 4 h. The resulting MTT-formazan product was dissolved by the addition of lysis buffer (20% SDS and 50% DMF). The amount of formazan was determined by measuring absorbance at 570 nm with a Synergy 2 microplate reader (BioTek, Winooski, VT, USA) operated by the Gen5 program. The experiments were conducted three times with five replications. The results are expressed as an optical density ratio of the treatment to control. All data are presented as means ± SD.

MTT viability, HT29 = format: cell-based, human; conditions: human, HT29 colorectal adenocarcinoma cells, 1000 µM (IC50 exceeded 1000 µM), read-out: viability ± standard deviation at 1000 µM
Description: as §3, §4

[7] = system: Promyelocytic Leukaemia HL-60; assay: MTT viability, HL-60; format: cell-based, human; conditions: Homo sapiens, HL-60, 24 h, HL-60, MTT, range 10–1000 µM, read-out: half maximal inhibitory concentration (IC50), interpolated
Description: as §3, §4

Fibroblasts HFIG = assay: MTT viability, HFIG; format: cell-based, human; conditions: Homo sapiens, Fibroblast, 24 h, range 10–1000 µM, read-out: half maximal inhibitory concentration (IC50), interpolated
Description: as §3, §4

Keratinocytes HaCaT = assay: MTT viability, HaCaT; format: cell-based, human; conditions: Homo sapiens, 24 h, range 10–1000 µM, read-out: half maximal inhibitory concentration (IC50), interpolated
Description: as §3, §4

MTT viability, IEC6 = format: cell-based; conditions: rat, IEC-6 small intestine epithelial cells, 1000 µM (IC50 exceeded 1000 µM), read-out: viability ± standard deviation at 1000 µM
Description: as §3, §4

MTT viability, HFIG = format: cell-based, human; conditions: human, HFIG (HFIB-G) gingival fibroblasts, 1000 µM (IC50 exceeded 1000 µM), read-out: viability ± standard deviation at 1000 µM
Description: as §3, §4

MTT viability, MEWO = format: cell-based, human; conditions: human, MEWO malignant melanoma cells, 1000 µM (IC50 exceeded 1000 µM), read-out: viability ± standard deviation at 1000 µM
Description: as §3, §4

MTT viability, HaCaT = format: cell-based, human; conditions: human, HaCaT keratinocytes, 1000 µM (IC50 exceeded 1000 µM), read-out: viability ± standard deviation at 1000 µM
Description: as §3, §4

Row | SMILES | MIC [1] | MIC [2] | MIC [3] | MIC [4] | MIC [5] | MIC [6] | IC50 (Malignant Melanoma MEWO) | viability at 24 h, 1000 µM (MTT viability, HT29) | IC50 [7] | IC50 (Fibroblasts HFIG) | IC50 (Keratinocytes HaCaT) | viability at 24 h, 1000 µM (MTT viability, IEC6) | viability at 24 h, 1000 µM (MTT viability, HFIG) | viability at 24 h, 1000 µM (MTT viability, MEWO) | viability at 24 h, 1000 µM (MTT viability, HaCaT)
1 | CC(C)=CCCC(C)C(C)=CCCC(C)=CC=O (stereo not drawn) [Compound 18, 3,7,8,12-Tetramethyltrideca-2,6,11-trienal] | 18 µg/mL (≈ 72.5 µM) | 22 µg/mL (≈ 88.6 µM) | 28 µg/mL (≈ 113 µM) | 52 µg/mL (≈ 209 µM) | 46 µg/mL (≈ 185 µM) | 46 µg/mL (≈ 185 µM) | 630 µM | 98% | 502 µM | 690 µM | 800 µM | 79% |  |  | 
2 | CC(C)=CCCC(C)CC(C)C(C)=CC=O (stereo not drawn) [Compound 23, 3,4,6,10-Tetramethylundeca-2,9-dienal] | 28 µg/mL (≈ 126 µM) | 26 µg/mL (≈ 117 µM) | 36 µg/mL (≈ 162 µM) | 46 µg/mL (≈ 207 µM) | 34 µg/mL (≈ 153 µM) | 36 µg/mL (≈ 162 µM) | 730 µM | 87% | 630 µM | 800 µM | 900 µM | 82% |  |  | 
3 | CC(=O)OCC=C(C)CCC=C(C)C(C)CCC=C(C)C (stereo not drawn) [Compound 30, 3,7,8,12-Tetramethyltrideca-2,6,11-trien-1-yl acetate] | 30 µg/mL | 24 µg/mL | 18 µg/mL | 30 µg/mL | 24 µg/mL | 24 µg/mL | 850 µM | 96% | 289 µM |  | 900 µM | 86% | 105% |  | 
4 | CC(=O)OCC=C(C)CC(C)CCC=C(C)C (stereo not drawn) [Compound 33, 3,5,9-Trimethyldeca-2,8-dien-1-yl acetate] | 26 µg/mL | 18 µg/mL | 16 µg/mL | 26 µg/mL | 18 µg/mL | 22 µg/mL |  | 110% | 400 µM |  |  | 95% | 100% | 103% | 101%
5 | CC(=O)OCC=C(C)CCC=C(C)CCC=C(C)C [Farnesyl acetate (5), farnesyl acetate, reference compound] | 28 µg/mL | 20 µg/mL | 20 µg/mL | 28 µg/mL | 22 µg/mL | 22 µg/mL | 734 µM | 105% | 121 µM |  |  | 78% | 98% |  | 102%
6 | CC(=O)OC/C=C(\C)CCC=CC(C)CCC=C(C)C (stereo not drawn) [Compound 31, (E)-3,8,12-Trimethyltrideca-2,6,11-trien-1-yl acetate] | 24 µg/mL | 20 µg/mL | 20 µg/mL | 26 µg/mL | 22 µg/mL | 18 µg/mL | 930 µM | 107% | 350 µM | 850 µM |  | 94% |  |  | 98%
7 | CC(=O)OCC=C(C)CCC(C)CCC=C(C)C (stereo not drawn) [Compound 34, 3,6,10-Trimethylundeca-2,9-dien-1-yl acetate] | 32 µg/mL | 20 µg/mL | 18 µg/mL | 18 µg/mL | 20 µg/mL | 18 µg/mL |  | 98% | 312 µM |  |  | 79% | 99% | 98% | 110%
8 | O=C(O)c1cn(C2CC2)c2cc(N3CCNCC3)c(F)cc2c1=O [Ciprofloxacin, reference compound] | 8 µg/mL (≈ 24.1 µM) | 2 µg/mL (≈ 6.04 µM) | 8 µg/mL (≈ 24.1 µM) | 4 µg/mL (≈ 12.1 µM) | 2 µg/mL (≈ 6.04 µM) | 4 µg/mL (≈ 12.1 µM) |  |  |  |  |  |  |  |  | 
9 | CNC(C)C1CCC(N)C(OC2C(N)CC(N)C(OC3OCC(C)(O)C(NC)C3O)C2O)O1 (stereo not drawn) [Gentamicin, reference compound] | 16 µg/mL (≈ 33.5 µM) | > 64 µg/mL | 32 µg/mL (≈ 67 µM) | 4 µg/mL (≈ 8.38 µM) | 32 µg/mL (≈ 67 µM) | 32 µg/mL (≈ 67 µM) |  |  |  |  |  |  |  |  | 
10 | CC(=O)OCC=C(C)C(C)CC(C)CCC=C(C)C (stereo not drawn) [Compound 35, 3,4,6,10-Tetramethylundec-2,9-dien-1-yl acetate] | 34 µg/mL | 16 µg/mL | 14 µg/mL | 16 µg/mL | 18 µg/mL | 12 µg/mL |  | 83% | 343 µM |  |  | 71% | 87% | 112% | 102%
